# Values joined by “and” are separate entries in the source; they are usually repeats but may differ in a detail not shown here. Identical values can stand only once. Like-named read-outs stand apart in the source and are kept apart here.
# What was measured:
# [1] = Pharmacokinetic (toxicokinetic) study, plasma; format: in vivo, Sprague Dawley rats; conditions: for RAUC (RATIO): Day 3 AUC(0-t) / Day 1 AUC(0-t) / Cmax / Tmax / half-life / clearance / Vd / AUC(0-t): plasma; for Cmax / Tmax / half-life / clearance / Vd / AUC(0-t): Sprague Dawley, rat
# Protocol: For the PK study of AVR-48 in rats, a formulation consisting of 10% DMSO, 20% tetraglycol, 20% PEG 400, and 50% sterile water was developed. Each preparation was made on the same day of dose administration. The components of the control/vehicle item formulation were added sequentially. Briefly, the appropriate volume of DMSO (10% of the final volume) was measured into a container followed by gradual addition of PEG 400 (20% of the final volume) and sterile water (50% of the final volume) to make up the volume and mixed thoroughly till completely dissolved. The final solution was filtered through a 0.22 µm membrane filter (Millipore Millex® GP PES, St. Louis, MO, USA) into a sterile vial. All PK studies were also conducted with 8–10-week-old male and female Sprague Dawley rats. An additional nine animals/sex/dose were used for PK analysis and blood (approximately 0.3 mL each) was collected from each rat on days 1 and 3 of the treatment period at time points of 5, 30, 60, 90, 120, and 180 min, and 6, 12 h, and 24 h post dose that were randomized to provide a total of three samples/sex for each time point. Samples were collected by jugular venipuncture and the samples were collected into tubes containing the anticoagulant, K3EDTA. The collection of BALF was limited to the terminal time points of 6 h, 12 h, and 24 h. AVR-48 concentrations in the blood and BALF were determined using LC/MS/MS analysis developed in house. PK parameters were estimated using Phoenix pharmacokinetic software (Certara, Princeton, NJ, USA) using a non-compartmental approach consistent with the IV bolus injection.
# hPBMC = test system: hPBMC; set-up: method as in earlier work; conditions: cited from earlier work
# [2] = Toxicology study of AVR-48, IV dose escalation and repeat dose phases; format: in vivo, Sprague Dawley rats
# Protocol: For the PK study of AVR-48 in rats, a formulation consisting of 10% DMSO, 20% tetraglycol, 20% PEG 400, and 50% sterile water was developed. Each preparation was made on the same day of dose administration. The components of the control/vehicle item formulation were added sequentially. Briefly, the appropriate volume of DMSO (10% of the final volume) was measured into a container followed by gradual addition of PEG 400 (20% of the final volume) and sterile water (50% of the final volume) to make up the volume and mixed thoroughly till completely dissolved. The final solution was filtered through a 0.22 µm membrane filter (Millipore Millex® GP PES, St. Louis, MO, USA) into a sterile vial.
# The toxicology study of AVR-48 was performed with both 8–10 week old male and female Sprague Dawley rats, in two phases following standard FDA guidance [M3(R2)R]. AVR-48 was injected IV at a volume of 5 mL/kg of body weight after reconstituting in 10% DMSO, 20% tetraglycol, and 20% PEG 400 in sterile water. In the dose escalation phase, 75 to 100 mg/kg per day was administered as two separate doses approximately 6–7 h apart by IV slow bolus injection at a volume of 5 mL/kg of body weight. Three animals of each sex were dosed at each dose level. During the repeat dose phase, daily doses of 0, 40, and 80 mg/kg/day were administered as two divided doses delivered by slow bolus injection at a volume of 5 mL/kg of body weight approximately 6–7 h apart. Study animals (n = 5/sex/dose) were treated for three days with a total of six doses for AVR-48. Twelve to eighteen hours after the last dose was administered, animals were euthanized and blood collected for analysis of clinical chemistry and other hematological parameters. Detailed necropsy examinations were performed on each animal, and tissues were collected and fixed with standard fixatives for histological analysis and interpretation.
structure (smiles),measurement,setting,value
"CC(=O)N[C@H]1[C@H](Oc2ccc([N+](=O)[O-])cc2)O[C@H](CO)[C@@H](O)[C@@H]1O [AVR-48, N-((2S,3R,4R,5S,6R)-4,5-dihydroxy-6-(hydroxymethyl)-2-(4-nitrophenoxy)tetrahydro-2H-pyran-3-yl) acetamide]",RAUC (RATIO): Day 3 AUC(0-t) / Day 1 AUC(0-t),"[1]; 40 mg/kg IV, Female",0.679
same,RAUC (RATIO): Day 3 AUC(0-t) / Day 1 AUC(0-t),"[1]; 40 mg/kg IV, Male",0.928
same,RAUC (RATIO): Day 3 AUC(0-t) / Day 1 AUC(0-t),"[1]; 80 mg/kg IV, Female",0.953
same,RAUC (RATIO): Day 3 AUC(0-t) / Day 1 AUC(0-t),"[1]; 80 mg/kg IV, Male",0.777
same,Cmax,"[1]; iv, 40 mg/kg, 40 mg/kg dose IV, read-out: Cmax",364 ± 9.36 µM
same,Cmax,"[1]; iv, 80 mg/kg, 80 mg/kg dose IV, read-out: Cmax",749.3 ± 5.25 µM
same,Cmax,"[1]; other: IV or IP, 10 mg/kg, single IV or IP 10 mg/kg dose, extrapolated from Cmax at 40 mg/kg, read-out: Cmax in plasma expected for 10 mg/kg",~91 µM
same,Tmax,"[1]; Day 1, 40 mg/kg IV, Female",5 min
same,Tmax,"[1]; Day 1, 80 mg/kg IV, Female",5 min
same,Tmax,"[1]; Day 1, 80 mg/kg IV, Male",5 min
same,Tmax,"[1]; Day 3, 40 mg/kg IV, Male",5 min
same,AUC(0-t) dose dependence,[1]; between 40 and 80 mg/kg/day dose groups,increased in a dose-dependent manner
same,half-life,"[1]; both sexes, intravenous, 80 mg/kg, both doses (40 and 80 mg/kg), read-out: half-life (T1/2)",1.4 to 2.34 h
same,clearance,"[1]; both sexes, intravenous, day 1 and day 3 of dosing, read-out: clearance (CL)",12.4 to 18.3 mL/min/kg
same,Vd,"[1]; both sexes, intravenous, day 1 and day 3 of dosing, read-out: volume of distribution (Vd)",1.51 to 3.72 L/kg
same,AUC(0-t),"[1]; female, iv, 40 mg/kg, Day 1, 40 mg/kg IV, Female",53900 ± 2860 ng·h/mL
same,clearance,"[1]; female, iv, 40 mg/kg, Day 1, 40 mg/kg IV, Female, read-out: Cl (converted)",12.4 mL/min/kg
same,Cmax,"[1]; female, iv, 40 mg/kg, Day 1, 40 mg/kg IV, Female, read-out: Cmax ± SE",129000 ng/mL and 377 µM
same,half-life,"[1]; female, iv, 40 mg/kg, Day 1, 40 mg/kg IV, Female, read-out: T1/2 (converted)",1.4 h
same,Vd,"[1]; female, iv, 40 mg/kg, Day 1, 40 mg/kg IV, Female, read-out: Vd",1.51 L/kg
same,AUC(0-t),"[1]; female, iv, 40 mg/kg, Day 3, 40 mg/kg IV, Female",36600 ng·h/mL
same,clearance,"[1]; female, iv, 40 mg/kg, Day 3, 40 mg/kg IV, Female, read-out: Cl (converted)",18.3 mL/min/kg
same,Cmax,"[1]; female, iv, 40 mg/kg, Day 3, 40 mg/kg IV, Female, read-out: Cmax ± SE",90400 ng/mL and 264 µM
same,half-life,"[1]; female, iv, 40 mg/kg, Day 3, 40 mg/kg IV, Female, read-out: T1/2 (converted)",2.34 h
same,Vd,"[1]; female, iv, 40 mg/kg, Day 3, 40 mg/kg IV, Female, read-out: Vd",3.72 L/kg
same,AUC(0-t),"[1]; female, iv, 80 mg/kg, Day 1, 80 mg/kg IV, Female",101000 ng·h/mL
same,clearance,"[1]; female, iv, 80 mg/kg, Day 1, 80 mg/kg IV, Female, read-out: Cl (converted)",13.4 mL/min/kg
same,Cmax,"[1]; female, iv, 80 mg/kg, Day 1, 80 mg/kg IV, Female, read-out: Cmax ± SE",237000 ng/mL and 692 µM
same,half-life,"[1]; female, iv, 80 mg/kg, Day 1, 80 mg/kg IV, Female, read-out: T1/2 (converted)",1.45 h
same,Vd,"[1]; female, iv, 80 mg/kg, Day 1, 80 mg/kg IV, Female, read-out: Vd",1.68 L/kg
same,AUC(0-t),"[1]; female, iv, 80 mg/kg, Day 3, 80 mg/kg IV, Female",95800 ng·h/mL
same,clearance,"[1]; female, iv, 80 mg/kg, Day 3, 80 mg/kg IV, Female, read-out: Cl (converted)",14 mL/min/kg
same,Cmax,"[1]; female, iv, 80 mg/kg, Day 3, 80 mg/kg IV, Female, read-out: Cmax ± SE",227000 ng/mL and 663 µM
same,half-life,"[1]; female, iv, 80 mg/kg, Day 3, 80 mg/kg IV, Female, read-out: T1/2 (converted)",2.05 h
same,Vd,"[1]; female, iv, 80 mg/kg, Day 3, 80 mg/kg IV, Female, read-out: Vd",2.48 L/kg
same,AUC(0-t),"[1]; male, iv, 40 mg/kg, Day 1, 40 mg/kg IV, Male",49800 ± 962 ng·h/mL
same,clearance,"[1]; male, iv, 40 mg/kg, Day 1, 40 mg/kg IV, Male, read-out: Cl (converted)",13.4 mL/min/kg
same,Cmax,"[1]; male, iv, 40 mg/kg, Day 1, 40 mg/kg IV, Male, read-out: Cmax ± SE",351 µM and 120000 ng/mL
same,half-life,"[1]; male, iv, 40 mg/kg, Day 1, 40 mg/kg IV, Male, read-out: T1/2 (converted)",1.64 h
same,Vd,"[1]; male, iv, 40 mg/kg, Day 1, 40 mg/kg IV, Male, read-out: Vd",1.91 L/kg
same,AUC(0-t),"[1]; male, iv, 40 mg/kg, Day 3, 40 mg/kg IV, Male",46200 ng·h/mL
same,clearance,"[1]; male, iv, 40 mg/kg, Day 3, 40 mg/kg IV, Male, read-out: Cl (converted)",14.5 mL/min/kg
same,Cmax,"[1]; male, iv, 40 mg/kg, Day 3, 40 mg/kg IV, Male, read-out: Cmax ± SE",115000 ng/mL and 336 µM
same,half-life,"[1]; male, iv, 40 mg/kg, Day 3, 40 mg/kg IV, Male, read-out: T1/2 (converted)",2.16 h
same,Vd,"[1]; male, iv, 40 mg/kg, Day 3, 40 mg/kg IV, Male, read-out: Vd",2.71 L/kg
same,AUC(0-t),"[1]; male, iv, 80 mg/kg, Day 1, 80 mg/kg IV, Male",118000 ng·h/mL
same,clearance,"[1]; male, iv, 80 mg/kg, Day 1, 80 mg/kg IV, Male, read-out: Cl (converted)",11.3 mL/min/kg
same,Cmax,"[1]; male, iv, 80 mg/kg, Day 1, 80 mg/kg IV, Male, read-out: Cmax ± SE",276000 ng/mL and 806 µM
same,half-life,"[1]; male, iv, 80 mg/kg, Day 1, 80 mg/kg IV, Male, read-out: T1/2 (converted)",2.05 h
same,Vd,"[1]; male, iv, 80 mg/kg, Day 1, 80 mg/kg IV, Male, read-out: Vd",2.02 L/kg
same,AUC(0-t),"[1]; male, iv, 80 mg/kg, Day 3, 80 mg/kg IV, Male",91500 ng·h/mL
same,clearance,"[1]; male, iv, 80 mg/kg, Day 3, 80 mg/kg IV, Male, read-out: Cl (converted)",14.7 mL/min/kg
same,Cmax,"[1]; male, iv, 80 mg/kg, Day 3, 80 mg/kg IV, Male, read-out: Cmax ± SE",190000 ng/mL and 555 µM
same,half-life,"[1]; male, iv, 80 mg/kg, Day 3, 80 mg/kg IV, Male, read-out: T1/2 (converted)",1.42 h
same,Vd,"[1]; male, iv, 80 mg/kg, Day 3, 80 mg/kg IV, Male, read-out: Vd",1.8 L/kg
same,accumulation,[1]; three days of twice daily administration,no accumulation
same,TNF-α,hPBMC; in vitro hPBMC model,decreases TNF-α
same,IL-10 expression,hPBMC; with or without LPS,increased IL-10 expression
same,"tolerability, repeat administration","[2]; 40 and 80 mg/kg/day as two daily doses of 20 and 40 mg/kg for three consecutive days, IV",well tolerated with no adverse clinical signs
same,hematology and clinical chemistry parameters,"[2]; IV for three consecutive days, up to 80 mg/kg/day",no changes in any of the hematology or clinical chemistry parameters
same,MTD at 3 days,"[2]; both sexes, Sprague Dawley, rat, in vivo, IV, two daily doses for three consecutive days, male and female rats",80 mg/kg/day
same,NOAEL at 3 days,"[2]; both sexes, Sprague Dawley, rat, in vivo, IV, two daily doses for three consecutive days, male and female rats, read-out: no observable adverse effect level (NOAEL)",80 mg/kg/day
same,adverse signs,"[2]; dose escalation, 75 mg/kg/day IV",No adverse signs were observed
same,mortality,"[2]; dose escalation, 100 mg/kg total daily dose IV",A single animal that received a total daily dose of 100 mg/kg died
same,clinical signs,"[2]; dose escalation, 100 mg/kg total daily dose, two IV bolus 6-7 h apart","clinical signs of hypoactivity, respiratory changes, changes in posture, and loss of motor coordination were observed"
same,therapeutic window over the efficacious dose,[2]; rat MTD/NOAEL vs 10 mg/kg efficacious dose in mouse,~8 fold
same,systemic gross observations at necropsy,[2]; repeat dose IV,no evidence of any AVR-48 related systemic gross observations at necropsy
